The text below walks through data of publication PMC9709406 (Frontiers in Pharmacology, 2022).

Like-named read-outs stand apart in the source and are kept apart here.

The test system of assay [1] is KYSE450 cell-derived xenograft. The assay can be described thus: In vivo cell-derived xenograft (CDX) mouse model. The arrangement: species or system nu/nu nude mice. How it is done: Mice were housed under specific pathogen-free conditions. All animal experiments were approved by the Bioethics Committee of Zhengzhou University and followed the guidelines set by the Institutional Animal Care and Use Committee (CUHCI2019002, CUHCI2021001, and CUHCI2021005). To generate the cell-derived xenograft (CDX) mouse model, nu/nu nude mice (Vital River Labs., Beijing, China) were subcutaneously injected with 5 × 10^6 cells (KYSE450). […] Tumor volume was calculated as follows: length × width × height × 0.5. Tumor size and mice weight were measured every 2–3 days. Compounds were administered for 15 days. The tumors were extracted for weighting, immunohistochemistry and immunofluorescence studies.
Frozen sections were washed three times with PBS and incubated overnight at 4°C with Ki-67 antibody. The next day, sections were washed three times and incubated with secondary antibody in PBS. After several washes, slides were counterstained with DAPI (Solarbio). The sections were mounted on microscope and imaged using fluorescent microscopy (Nikon, Tokyo, Japan). Image-Pro Plus 6.0 was used to analyze the fluorescence intensity.
Histological sections were dewaxed, antigens were repaired and sealed with serum in sequence. Next, histological sections were incubated overnight with diluted primary antibodies (1 : 500 dilution), and the control specimens were treated with PBS. The sections were washed 3 times with PBS. Secondary antibody was added and the system was then placed at 37 °C for half an hour. The systems were washed 3 times with PBS. Color developing agent was added. After washing with water, the system was soaked in hematoxylin for 0.5 min for dyeing. The re-dyed slides were washed with water, and then dehydrated. Neutral gums were dropped on the side of the tissue. The slices were then covered with cover glass, sealed and placed in a ventilator for drying. Immunohistochemical staining analysis was then carried out with Image-Pro Plus 6.0.

The test system of the next assay is H1975 cells. The assay can be described thus: MTT assay for cell proliferation and cytotoxicity, H1975. Format: cell-based, human. To be noted: Homo sapiens, H1975, MTT, resistance-inducing drug (osimertinib). The method in brief:
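MTT read-out at 490 nm after 48 h treatment with 0–50 μM compound, applied one day after seeding 2,200–2,500 cells/well; five wells per concentration, 0.1% DMSO as control. Culture in RPMI-1640/10% FBS, with 100 nm/L paclitaxel kept in the taxol-resistant lines.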
(Tetrazolium assays rely on reduction of a dye to a coloured formazan, in cell work by metabolically active cells.)

The next assay has as its system H1975OR cells. The assay is described as follows: MTT assay, osimertinib-resistant H1975OR. Format: cell-based. Particulars: Homo sapiens, H1975OR, resistance-inducing drug (osimertinib). From the text:
The human cancer cells (H1650, H1975, KYSE70, KYSE410 and KYSE450) were purchased from the Type Culture Collection of the Chinese Academy of Sciences (Shanghai, China). The human immortalized normal esophageal epithelial cell line SHEE was donated by Dr. Enmin Li from the Laboratory of Tumor Pathology (Shantou University Medical College, Shantou, Guangdong, China). Drug-resistant cells (H1650TR, H1975OR, KYSE70TR, KYSE410TR and KYSE450TR) were induced by China-US (Henan) Hormel Cancer Institute. The cellswere cultured in RPMI-1640 complete growth medium containing 100 U/mL penicillin-streptomycin and 10% FBS. Based on the above medium formula, 100 nm/L paclitaxel was added in taxol-resistant cells, 100 nm/L gefitinib was added in gefitinib-resistant cells. The cells were incubated at 37 °C in an atmosphere containing 5% of CO2. The compounds were dissolved in DMSO to make a 50 mM stock solution and were diluted to the concentration of working solutions with complete growth medium before administration.
Cells were seeded in 96-well plates with 2,200–2,500 cells/well in100 μL. One day after seeding, test compounds with the concentration between 0 and 50 μM were added with 0.1% DMSO as control. Five multiple wells for each concentration. […] The absorbance at 490 nm was measured using a microplate reader (Thermo).

Where [2] appears, read: nude mice, 50 mg/kg i.p. every day, 15 days, vs control group and icotinib group.

As to `C#Cc1cccc(Nc2ncnc3cc(OCCOC)c(OCCOC)cc23)c1` [erlotinib, reference compound], in assay [1] (50 mg/kg i.p., immunofluorescence), the “expression of proliferation marker Ki-67 in tumor” value is “decreased significantly”. Moreover, the “expression of P-ERK (Tyr202/204) in tumor” value in assay [1] (50 mg/kg i.p., immunohistochemistry) was “decreased significantly”. In assay [1] (setting [2]), the ESCC tumor volume entry is on record as “markedly reduced” and the average tumor weight entry is listed as “markedly reduced”.
Take `C=CC(=O)Nc1cc(Nc2nccc(-c3cn(C)c4ccccc34)n2)c(OC)cc1N(C)CCN(C)C` [osimertinib, reference compound]: the IC50 (usually the midpoint of a concentration-inhibition curve) with H1975 cells (NCI-H1975, 24 h, 24 h, read-out: 24 h IC50) was found to be 0.585 ± 0.0261 µM; in the assay on H1975 cells (NCI-H1975, 48 h, 48 h, read-out: 48 h IC50), 0.102 ± 0.0121 µM; with H1975OR cells (24 h, read-out: 24 h IC50), 13.8 ± 2.98 µM; with H1975OR cells (48 h, read-out: 48 h IC50), 5.97 ± 0.289 µM.
